In ChEMBL document CHEMBL4806960, “Inhibitors of GPR174 and Uses Thereof” (2020) one finds Activity, EC50 and Ratio data, which are given here for eleven compounds.

Calls of active or inactive are those of the source. The rule behind the calls is not given here.

Assay [1] concerns the target T1, Probable G-protein coupled receptor 174 (Homo sapiens, UniProt Q9BXC1). The assay is described as follows: Allosteric modulator activity at human GPR174 expressed in cells assessed as inhibition of CRE-luc reporter activity by measuring decrease in Gs-protein signalling activity relative to control. The class given is functional, cell-based. The conditions noted are these: filed as […] allosteric modulator.

The target in assay [2] is T1, Probable G-protein coupled receptor 174. In words: Antagonist activity at human GPR174 expressed in cells assessed as inhibition of CRE-luc reporter activity by measuring decrease in Gs-protein signalling activity relative to control. As to conditions: filed as antagonist. It is filed as functional, cell-based.
Assay [3] has the same target. In words: Inhibition of GPR174 (unknown origin) in cells assessed as incorporation of nuclear localization sequence into transmembrane protein by cellular redistribution assay. It is filed as functional.
Assay [4] has the same target. In words: Inhibition of human GPR174 in anti-CD3/antiCD28-stimulated CD45RA-FOXP+ human PBMC assessed as reduction in CTLA4 expression measured in non-memory Treg cells relative to control. The class given is functional, cell-based. As to conditions: dose 0.19-6 µM.
Assay [5] shares this target. In words: Inhibition of human GPR174 in anti-CD3/antiCD28-stimulated human PBMC assessed as increase in TNFalpha production at 10 uM measured after 2 days relative to control. The class given is functional, tissue-based. As to conditions: time 2.0 day.
Assay [6] has the same target. In words: Inhibition of human GPR174 in anti-CD3/antiCD28-stimulated human PBMC assessed as increase in IL-10 production at 10 uM measured after 2 days relative to control. The class given is functional, tissue-based. As to conditions: time 2.0 day.
Assay [7] shares this target. The assay is described as follows: Inhibition of human GPR174 in anti-CD3/antiCD28-stimulated human PBMC assessed as reduction in AREG expression in CD4+ T cell relative to control. The class given is functional, tissue-based.
For assay [8] the target is unchanged. The assay is described as follows: Inhibition of GPR174 in anti-CD3/antiCD28-stimulated human PBMC assessed as increase in IFNgamma level measured after 2 days by ELISA. It is filed as functional, tissue-based. As to conditions: time 2.0 day. A general note: In an ELISA, binding on a coated surface is turned into a signal by an enzyme label.
Assay [9] has the same target. The assay is described as follows: Inhibition of human GPR174 in anti-CD3/antiCD28-stimulated human PBMC assessed as non-T cell cell population at 10 uM measured after 2 days relative to control. The class given is functional, tissue-based. On the set-up: scale not given: the % may be the effect or the level left. The conditions noted are these: time 2.0 day.
Assay [10] has the same target. The assay is described as follows: Inhibition of human GPR174 in anti-CD3/antiCD28-stimulated human PBMC assessed as CD4+ cell population at 10 uM measured after 2 days relative to control. It is filed as functional, tissue-based. On the set-up: scale not given: the % may be the effect or the level left. The conditions noted are these: time 2.0 day.
Assay [11] concerns the target Probable G-protein coupled receptor 174 (Mus musculus) (UniProt Q3U507). The assay is described as follows: Inhibition of mouse GPR174 in anti-CD3/antiCD28-stimulated mouse splenocytes assessed as increase in IL-2 production at 10 uM measured after 2 days. It is filed as functional, tissue-based. The conditions noted are these: Splenocyte, time 2.0 day.
Assay [12] addresses T1, Probable G-protein coupled receptor 174. The assay is described as follows: Inhibition of human GPR174 in anti-CD3/antiCD28-stimulated human PBMC assessed as increase in natural Treg cells […] at 100 uM measure after 7 days by flow cytometry. It is filed as functional, cell-based. The conditions noted are these: time 7.0 day. On the technique in general: In flow cytometry, cells or beads pass a laser one at a time.

Assay [13] has the same target. In words: Inhibition of human GPR174 in anti-CD3/antiCD28-stimulated human regulatory T cells assessed as reduction in CTLA4 expression relative to control. It is filed as functional, tissue-based. As to conditions: T cell, dose 0.19-6 µM.
For assay [14] the target is unchanged. In words: Inhibition of human GPR174 in anti-CD3/antiCD28-stimulated CD45RA-FOXP+ human PBMC assessed as reduction in CTLA4 expression measured in memory Treg cells relative to control. It is filed as functional, cell-based. The conditions noted are these: dose 0.19-6 µM.
Assay [15] has the same target. The assay is described as follows: Inhibition of human GPR174 in anti-CD3/antiCD28-stimulated human PBMC assessed as increase in IFNgamma production at 10 uM measured after 2 days relative to control. It is filed as functional, tissue-based. As to conditions: time 2.0 day.
Assay [16] shares this target. The assay is described as follows: Inhibition of human GPR174 in anti-CD3/antiCD28-stimulated human PBMC assessed as reduction in natural Treg cells (FoxP3+Helios+) measure after 7 days by ELISA. The class given is functional, cell-based. As to conditions: dose 3-30 µM, time 7.0 day.
The target is the same in assay [17]. The assay is described as follows: Inhibition of human GPR174 in anti-CD3/antiCD28-stimulated human PBMC assessed as reduction in CTLA4 expression relative to control. It is filed as functional, tissue-based. The conditions noted are these: dose 0.19-6 µM.
The target is the same in assay [18]. The assay is described as follows: Inhibition of human GPR174 in anti-CD3/antiCD28-stimulated human PBMC assessed as reduction in PD-L1 expression in CD4+ T cell relative to control. The class given is functional, tissue-based.
For a further assay, the system named is Splenocyte. In words: Effect on IL-2 production in mouse GPR174 knock out splenocytes at 10 uM measured after 2 days. As to conditions: time 2.0 day. It is filed as functional, cell-based.
In assay [19] the target is T1, Probable G-protein coupled receptor 174. The assay is described as follows: Inhibition of human GPR174 in anti-CD3/antiCD28-stimulated human PBMC assessed as CD8+ cell population at 10 uM measured after 2 days relative to control. It is filed as functional, tissue-based. Also noted: scale not given: the % may be the effect or the level left. As to conditions: time 2.0 day.

Assay [20] shares this target. The assay is described as follows: Inhibition of human GPR174 in anti-CD3/antiCD28-stimulated human PBMC assessed as reduction in natural Treg cells (FoxP3+Helios+) at 100 uM measure after 7 days by flow cytometry. As to conditions: time 7.0 day. It is filed as functional, cell-based.
Assay [21] shares this target. In words: Inhibition of human GPR174 in anti-CD3/antiCD28-stimulated human PBMC assessed as increase in IL-6 production at 10 uM measured after 2 days relative to control. As to conditions: time 2.0 day. It is filed as functional, tissue-based.
The target is the same in assay [22]. The assay is described as follows: Inhibition of human GPR174 in anti-CD3/antiCD28-stimulated human PBMC assessed as increase in IL-2 level measured after 2 days by ELISA. The class given is functional, tissue-based. The conditions noted are these: time 2.0 day.
Assay [23] has the same target. In words: Inhibition of human GPR174 in anti-CD3/antiCD28-stimulated human PBMC assessed as increase in IL-2 production measured after 2 days. It is filed as functional, tissue-based. As to conditions: dose 3-60 µM, time 2.0 day.
For assay [24] the target is unchanged. In words: Inhibition of human GPR174 in anti-CD3/antiCD28-stimulated human PBMC assessed as reduction in TGIT expression in CD8+ T cell relative to control. The class given is functional, tissue-based.
For assay [25] the target is unchanged. In words: Inverse agonist activity at human GPR174 expressed in cells assessed as inhibition of CRE-luc reporter activity by measuring decrease in Gs-protein signalling activity relative to control. The class given is functional, cell-based.

T1 sequence (Q9BXC1 whole entry): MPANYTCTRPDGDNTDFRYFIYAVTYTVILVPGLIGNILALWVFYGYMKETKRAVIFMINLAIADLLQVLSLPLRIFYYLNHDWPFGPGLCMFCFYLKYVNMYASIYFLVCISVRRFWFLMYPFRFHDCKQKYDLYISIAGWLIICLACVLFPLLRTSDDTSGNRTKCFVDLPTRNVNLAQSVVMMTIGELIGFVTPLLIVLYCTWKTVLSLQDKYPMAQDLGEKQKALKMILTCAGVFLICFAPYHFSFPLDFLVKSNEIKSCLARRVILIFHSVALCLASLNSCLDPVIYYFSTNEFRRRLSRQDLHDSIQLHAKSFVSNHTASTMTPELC
Chain of Probable G-protein coupled receptor 174 (Mus musculus) (Q3U507 whole entry): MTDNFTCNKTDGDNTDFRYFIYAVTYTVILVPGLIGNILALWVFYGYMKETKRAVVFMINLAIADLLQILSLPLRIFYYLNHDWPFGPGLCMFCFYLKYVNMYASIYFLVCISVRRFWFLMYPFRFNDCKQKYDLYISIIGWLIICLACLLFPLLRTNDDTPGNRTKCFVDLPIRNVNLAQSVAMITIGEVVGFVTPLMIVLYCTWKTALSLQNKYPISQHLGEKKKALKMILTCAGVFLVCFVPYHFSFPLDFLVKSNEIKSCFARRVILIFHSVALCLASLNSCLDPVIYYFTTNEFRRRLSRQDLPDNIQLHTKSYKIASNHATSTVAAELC

As to `CC(=O)c1ccc(N2CCN(C(=O)c3ccc(F)cc3)CC2)c(F)c1`, the outcome in assay [1] and in assay [2] was Active.

`Cc1cc(Cc2ccc(NC(=O)c3cccs3)c(C)c2)ccc1NC(=O)c1cccs1`: the EC50 in assay [3] was found to be 500 nM. The result in [1] and in [2] was Active.

For `Cc1cc(C(=O)N/N=C/c2cc(Br)ccc2O)c(C)o1`, the outcome in assay [1] and in assay [2] was Active.

Consider `Cc1ccc(-c2nnc(Nc3ccccc3)c3ccccc23)cc1S(N)(=O)=O`, for which the result in [1] and in assay [2] was Active.

In the case of `CCCC(=O)c1ccc(N2CCN(S(=O)(=O)c3ccc(C)cc3)CC2)c(F)c1`, in assay [2], the outcome was Active.

In the case of `CC1CCN(c2cc(N3CCN(S(=O)(=O)c4ccccc4)CC3)c([N+](=O)[O-])cc2F)CC1`, the result in [4], in assay [5], in assay [6], in assay [8], in assay [11] and in assay [12] was Active. Besides, the result in assay [14], in [15], in assay [20] and in [21] was Active. Moreover, the Activity result was “Dose-Dependent Effect” in [7]; 33.9% in assay [9]; 46.2% in [10]; “Dose-Dependent Effect” in assay [13]; “Dose-Dependent Effect” in assay [16]; “Dose-Dependent Effect” in assay [17]. Also, the Activity result in assay [18] was “Dose-Dependent Effect”; in [19], 17.1%; in assay [22], “Dose-Dependent Effect”; in assay [23] it was “Dose-Dependent Effect”; in [24], “Dose-Dependent Effect”. In addition, the concentration giving a half-maximal response (EC50) in assay [3] turned out to be 600 nM. Besides, the result with Splenocyte was inactive.

`O=C(c1ccccc1)N1CCN(c2cc(N3CCCCC3)c(F)cc2[N+](=O)[O-])CC1`: the Activity entry in assay [22] was “Dose-Dependent Effect”.

On to `O=C(N/N=C/c1cc(Cl)ccc1O)c1ccncc1`, for which the outcome in [1] and in assay [2] was Active.

Regarding `CCOc1ccc(C2C3=C(CCCC3=O)NC3=C2C(=O)c2ccccc23)cn1` (stereo not given), in [25], the Ratio was 3.

With `C=C(C)COc1ccc(NC(=O)Nc2ccccc2)cc1`, in [25], the Ratio came to 3.7.

As for `Cc1ccccc1Nc1nnc(-c2ccc(C)c(S(N)(=O)=O)c2)c2ccccc12`, the outcome in [1] and in [2] was Active.

For orientation: EC50 means the concentration needed to bring the measured effect to its halfway point.
